According to patent US7361735B2, “LITAF binding site peptides and methods of using the same” (Trustees of Boston University, priority 2003, dated 2008):

Legend:
[1] = test system: mtTNFP2 (−550 to −487 plus TATA Box); test: Luciferase reporter assay, short TNF-α promoter fragment with LITAF binding site, THP-1; type: cell-based, human; settings: 1 μg/ml peptide via Chariot or 100 ng/ml LPS, in comparison with the HA control, FIG. 6b
Procedure: (§1) FIGS. 6a and 6b are graphical representations of the transcriptional activity of a series of deletion constructs of TNF-α promoter DNA. FIG. 6a depicts the activity measured due to either the promoter wtTNFβ (−991 to 1) or mtTNFβ1 (−991 to 1Δ−515 to −511). pGL3-basic transfected cell as unstimulated control was used. After transfection of DNAs for 3 hrs, the cells were washed with PBS twice, and stimulated with 100 ng/ml LPS (E. coli) or transfected with Chariot/peptide complex of 1 μg/ml of either peptide A, B, C, or HA. Triplicate assays were performed. Values are normalized by β-gal production and graphed. FIG. 6b depicts the activity measured due to the promoter mtTNFβ2 (−550 to −487 plus TATA box) or mtTNFβ3 (−550 to −487Δ−515 to −511 plus TATA box). LPS or peptides as stimuli and controls were used at the same condition as described above.
(§2) The following series of hTNF-α promoter DNA fragments were subcloned (FIG. 1b) into the pGL3-Basic vector, which has a promoterless and enhancerless luciferase reporter gene, available from Pharmacia: 1. wtTNFP (−991 to 1) was generated by PCR with primer pairs: 5′-[…]-3′ (SEQ ID NO: 20′) and 5′-[…]-3′(SEQ ID NO: 21′). 2. mtTNFP1 (−991 to 1Δ−515 to −511). The first in-frame mutant hTNF-α promoter was generated by PCR with primer pairs, 5′-[…]-3′(SEQ ID NO: 20) and 5′-[…] (SEQ ID NO: 22). The second mutant DNA was generated by PCR with primer pairs, 5′-[…]-3′ (SEQ ID NO: 23) and 5′-[…]-3′ (SEQ ID NO: 21). Both first and second DNA fragments above were purified and diluted as template to 1 ng/reaction and finally amplified by PCR with primer pairs, 5′-[…]-3′ (SEQ ID NO: 20) and 5′-[…]-3′ (SEQ ID NO: 21). […]
(§3) THP-1 cells (5×10^6/well) were induced to maturation by addition of […] (Sigma) and incubated at 37° C., 5% CO2 for 20 hrs, washed with PBS twice, co-transfected with 1 μg DNAs by using Fugene 6 (Roche Molecular Biochemicals) for 3 hrs, washed with PBS, then individually transfected with Chariot/peptide complex of 1 μg/ml peptide A, B, C or HA or stimulated with 100 ng/ml LPS (E. coli) for 3 hrs, washed with PBS, incubated at 37° C., 5% CO2, overnight. […] Luciferase activity in the lysates was measured using a commercial kit (Luciferase Reporter Assay System, Promega) and normalized by β-gal assay in the same lysates as described (McClane et al., Hum. Gene Ther. 10:739-746, 1997).
(§4) To determine whether the short sequence CTCCC (−515 to −511) in the hTNF-a promoter is responsible for hLITAF binding activity, a series of hTNF-α promoter/reporter constructs were cloned (see FIG. 1b) and individually transiently transfected into THP-1 cells. […] TNF-α promoter activity was subsequently analyzed using the luciferase assay. […]

[2] = test system: wtTNFP (−991 to 1); test: Luciferase reporter assay, wild type full-length TNF-α promoter, THP-1; type: cell-based, human; settings: 1 μg/ml peptide via Chariot or 100 ng/ml LPS, normalized by β-gal, peptide B compared with HA-stimulated cells
Procedure: as §1, §2, §3, §4

[3] = test system: mtTNFP1 (−991 to 1Δ−515 to −511); test: Luciferase reporter assay, full-length TNF-α promoter lacking CTCCC, THP-1; type: cell-based, human; settings: 1 μg/ml peptide via Chariot or 100 ng/ml LPS, FIG. 6a
Procedure: as §1, §2, §3, §4

[4] = test system: THP-1 cells; test: ELISA of hTNF-α after Chariot delivery of peptide; type: cell-based, human; settings: PMA-matured THP-1; Chariot/peptide 1, 10, 100 ng/ml or 1 μg/ml; 24 hours; ELISA of supernatant
Procedure: FIG. 5 is a graphical representation of the production of TNF-α in THP-1 cells after transfection of peptide A, B, C, or HA with Chariot as described herein. The concentration of active of TNF-α was induced by various concentrations of peptide and measured by duplicate ELISA tests at the same condition and graphed.
THP-1 cells were induced to maturation by addition of […] (Sigma) and incubated at 37° C., 5% CO2 for 20 hrs, then washed with PBS twice, and stimulated (delivered) with Chariot/peptide complex of various concentrations of either peptide A or B or C or HA in a 96-well plate at 2×10^4 cells/well as indicated in the text. After 24 hrs of incubation at 37° C., 5% CO2, culture supernatants were harvested, centrifuged at 1,500×g to remove cell debris, then TNF-α was measured by ELISA (ABRAXIS, Hatboro, Pa.) and quantified on a Model 680 Microplate Reader (BioRad).
Therefore, peptides A, B, and C, were synthesized based on the amino acid sequence of hLITAF. […] After pretreatment with PMA, peptides A, B, C, or HA were introduced into THP-1 cells using Chariot, as described herein, in concentrations of 1, 10, 100 ng/ml or 1 μg/ml. After 24 hours, culture supernatants were harvested and TNF-α was quantified by ELISA. […] In contrast, peptide B increased TNF-α secretion by as much as 2.4 fold over unstimulated levels.

[5] = test system: mtTNFβ1, promoter from −991 to 1 lacking the LITAF binding site; test: Luciferase reporter assay, mutant TNF-α promoter lacking LITAF binding site, WTK-1; type: cell-based; settings: WTK-1 cells; LPS stimulation
Description: (§5) FIG. 10 is a graphical representation of the analysis of LITAF function in luciferase reporter constructs. The series of TNF-α promoter DNA fragments were subcloned into the pGL3 basic vector (Pharmacia), a promoterless and enhancerless luciferase reporter gene. One construct, named wtTNFβ, contained TNF-α promoter from −991 to 1. Another one, mtTNFβ1, was a mutant inserted with the promoter from −991 to 1, but lacking the LITAF binding site. WTK-1 cells (grown to 85% confluence) in a 6-well plate at 1.2×10^5 cells/well were co-transfected with 1 μg DNAs including pCMV-LITAF recombinant vector, pVMVβ-gal and pGL3 basic as control by Fugene 6 (Roche Molecular Biochemicals) for 3 hrs, washed with PBS twice, then individually stimulated with LPS or Chariot/peptide complex of 100 ng/ml peptide B (peptide fragment of LITAF representing aa 152-228) or HA as control for 3 hrs, washed with PBS, incubated at 37° C., 5% CO2, o/n. The β-galactosidase gene was included in all transfections. The cells were harvested and lysed approximately 12 hrs after transfection. The promoter activity from each lysate sample was measured using the luciferase reporter assay system (Promega) and normalized to β-gal expression in the same sample, as described in the methods section below.
(§6) The activation of TNF-α gene expression by LITAF was investigated. […]

[6] = test system: COS-7 cells (wild-type p53); test: Northern blot of LITAF transcript after LPS, COS-7; type: cell-based; settings: LPS 500 ng/ml for 4 hrs
Procedure: (§7) FIGS. 7a and 7b show the analysis of the accumulation of p53 and induction of LITAF mRNA. […] 60 μg of crude cell lysate was loaded per lane and separated on an 8% SDS-PAGE, which were then transferred to Immobilon-P. The protein blots were probed individually with monoclonal antibodies specific for p53 (DO-1, Santa cruz) or with goat polyclonal antibodies for actin (C-11, Santa cruz). p53 proteins were expressed well in lanes 2 through 4. […] Cells were incubated with 100 or 500 ng/ml of LPS for 4 or 24 hrs. Total cellular RNA was purified by using the Oligotex mRNA Kit (Qiagen). mRNA was size-fractionated on a denaturing formaldehyde-agarose gel (1.1%) and transferred onto a Hybond-N^+ membrane (Amersham). These filters were hybridized with an γ-^32P ATP-labeled DNA probe and then autoradiographed with BIOMAX MR film (Kodak).
(§8) The accumulation of p53 after LPS stimulation was investigated.

[7] = test system: COS-7 cells (wild-type p53); test: Western blot of p53 accumulation after LPS; type: cell-based; settings: LPS 500 ng/ml for 4 hrs
Procedure: as §7, §8

[8] = test system: wtTNFβ, TNF-α promoter from −991 to 1; test: Luciferase reporter assay, wild-type TNF-α promoter, WTK-1; type: cell-based; settings: WTK-1 cells; normalized to β-gal; LITAF overexpressed alone without LPS stimulation
Description: as §5, §6

[9] = test system: COS-7 cells; test: TUNEL analysis of DNA fragmentation of apoptotic cells; type: cell-based
Procedure: FIG. 8 depicts the TUNEL analysis of DNA fragmentation of apoptotic COS-7 cells in response to LPS. After LPS stimulation, cells were fixed in 4% methanol-free formaldehyde solution for 30 min at room temperature, then permeated with 0.1% Triton X-100 for 2 min at 4° C. After washing with PBS, the samples were stained according to the manufacturer's recommended protocol for TUNEL (Promega.). The fragmentation of apoptotic COS-7 cell nuclei was analyzed by fluorescence microscopy (panels g, f, or h). The corresponding field was also observed by standard phase contrast microscopy (panels a, b, or c).
Since the induction of LITAF follows the accumulation of p53 (FIG. 7a), the DNA fragmentation of apoptotic COS-7 cells after 4 hrs with LPS stimulation was investigated.

[10] = test system: WTK-1 cells (p53-deficient cell line); test: Northern blot of LITAF transcript after LPS, WTK-1; type: cell-based; settings: WTK-1 p53-deficient cells
Procedure: as §7, §8

[11] = test system: mtTNFP3 (−550 to −487Δ−515 to −511 plus TATA Box); test: Luciferase reporter assay, short TNF-α promoter fragment lacking LITAF binding site, THP-1; type: cell-based, human; settings: 100 ng/ml LPS, FIG. 6b
Procedure: as §1, with “above. […]” for “above.”
as §4

Substance	expression of luciferase, shorter reporter plasmid containing the LITAF binding site [1]	hTNF-α promoter activity (luciferase expression), wild type promoter [2]	promoter activity (luciferase), mutant TNF-α promoter lacking the CTCCC motif [3]	TNF-α secretion over unstimulated levels [4]	TNF-α promoter activity (luciferase), mutant promoter/reporter plasmid [5]	LITAF transcript [6]	inducible p53 protein [7]	TNF-α promoter activity (luciferase), wild-type promoter/reporter plasmid [8]	apoptosis (TUNEL) ([9]; 100 ng/ml of LPS)	TUNEL-positive (apoptotic) cells ([9]; 500 ng/ml LPS for at least 4 hrs)	LITAF transcription [10]	activation of shorter reporter plasmid lacking the LITAF binding site [11]
LSSSFTPGGGSALVVS [peptide C]	unable to activate	did not result in any significant increase	no appreciable induction	did not induce any significant TNF-α secretion								
Lipopolysaccharide [LPS]	strongly dependent on the presence of the LITAF binding site	similarly activated	similarly activated		similarly activated	detected	detected	similarly activated	did not induce apoptosis	significantly increased	did not induce LITAF transcription	activation not observed
SQTWREPGAAGSPFHL [peptide B]	2.3 fold	~2 fold	no appreciable induction	≤ 2.4 fold								
SYYTQPAPIPNNNPIT VQTVY (SYYTQPAPIPNNNPITVQTVY) [peptide A]	unable to activate	did not result in any significant increase	no appreciable induction	did not induce any significant TNF-α secretion								
YPYDVPDYASL [HA, reference compound]				did not induce any significant TNF-α secretion								
